Results on 10 compounds are retold here after paper PMC11397566, “Cytotoxic Natural Products from the Jurassic Relict Osmunda regalis L” (Molecules, 2024).

Holding throughout (assay type): cell-based
One series relates to MOLM13 cells. The series is described as follows: Cytotoxicity (WST-1 metabolic activity) towards AML cell line MOLM13. Particulars: for cytotoxic activity against the MOLM13 cells (in words): compared with a DMSO control, 72 hours of incubation; for EC50: Homo sapiens, MOLM-13, metabolic activity (WST-1) after 72 h of incubation, compounds diluted in DMSO, three independent experiments. As for the experimental part: (§1) The pure compounds were diluted to create stock solutions with a final concentration of 20 mM in DMSO (Dimethyl Sulfoxide—for molecular biology, Sigma-Aldrich, Saint Louise, MO, USA). Normal rat kidney epithelial cells (NRK, ATCC no.: CRL-6509) and rat cardiomyoblasts (H9c2, ATCC no.: CRL-1446) were grown in DMEM medium enriched with 10% foetal bovine serum (FBS, Invitrogen, Carlsbad, CA, USA). Once the cells achieved 80% confluence, they were gently detached using trypsin treatment (0.33 mg/mL trypsin for 5 min at 37 °C), centrifuged (160× g, 4 min), and then reseeded in fresh medium to reach 25% confluence.
The AML cell line MOLM13 (DSMZ no.: ACC554, [39]) was maintained in RPMI-1640 medium supplemented with 10% FBS and 8 mM L-glutamine (Sigma Life Science, Dorset, UK). The cells were kept in suspension cultures with a density of 150,000 to 700,000 cells/mL.
(§2) All media were further supplemented with 1 IU/mL penicillin and 1 mg/mL streptomycin (both from Cambrex, Liège, Belgium) and incubated in a humidified environment (37 °C, 5% CO2). For the cytotoxicity experiments with compounds 11 to 15, the NRK and H9c2 cells were seeded in 96-well tissue culture plates (4000 cells/well, 0.1 mL) and left overnight to attach before treatments. The MOLM13 cells were seeded in 96-well tissue culture plates at 20,000 cells/well in 0.1 mL on the day of the experiment.
(§3) Compounds dissolved in DMSO were added to the cells, and the plates were incubated for 72 hours before adding the tetrazolium salt WST-1 according to the manufacturer’s instructions (Roche Diagnostics GmbH, Mannheim, Germany). The plates were further incubated for two hours before the signal was recorded at 450 nm with reference at 620 nm. For black subtraction, medium and plant compounds were added to WST-1. This procedure was performed after 24 and 72 h.
(§4) After recording WST-1, the cells were next fixed with 2% buffered formaldehyde (pH 7.4) with 0.01 mg/mL of the DNA-specific fluorescent dye, […]. As previously described, the presence of dead (apoptotic or necrotic) cells was verified by differential interference contrast and fluorescence microscopy.
(§5) EC50 values were determined by a four-parameter regression analysis as described by Viktorsson et al., using SigmaPlot ver. 14.0 (Systat Software Inc., San Jose, CA, USA).

For a further series, the system named is H9c2 cells. The series is described as follows: Cytotoxicity (WST-1 metabolic activity) towards rat cardiomyoblasts H9c2. The note with it: metabolic activity (WST-1) after 72 h of incubation, compounds diluted in DMSO, three independent experiments. As for the experimental part:
as §1, with “confluence. […]” for “confluence.”
Compounds dissolved in DMSO were added to the cells, and the plates were incubated for 72 hours before adding the tetrazolium salt WST-1 according to the manufacturer’s instructions (Roche Diagnostics GmbH, Mannheim, Germany). The plates were further incubated for two hours before the signal was recorded at 450 nm with reference at 620 nm. […]
as §4
EC50 values were determined by a four-parameter regression analysis as described by Viktorsson et al., using SigmaPlot ver. […]
Background: Formazan colour is commonly taken as a measure of viable cells.

The test system of another series is NRK cells. The series is described as follows: Cytotoxicity (WST-1 metabolic activity) towards normal rat kidney epithelial cells NRK. The note with it: for EC50: Rattus norvegicus, NRK, metabolic activity (WST-1) after 72 h of incubation, compounds diluted in DMSO, three experiments, "-" = no data available due to low or no toxicity. As for the experimental part:
as §1, §2, §3, §4, §5

Bounds are passed on as bounds.

As to `CC1=CC(=O)CC(C)(C)C1CCC(C)O[C@@H]1O[C@H](CO)[C@@H](O)[C@H](O)[C@H]1O` (stereo partly drawn) [Compound 14, blumenol C 9-O-β-glucopyranoside], the “cytotoxic activity against the MOLM13 cells (in words)” value (shortened to “cytotoxic activity”) in the series with MOLM13 cells is “Only compounds 11 and 15, which are γ- and δ-lactones, respectively, exhibited significant cytotoxic activity”.
For `COc1cc(C2Oc3c(OC)cc(CCCO)cc3[C@H]2CO)ccc1O[C@@H]1O[C@@H](C)[C@H](O)[C@@H](O)[C@H]1O` (stereo partly drawn) [Compound 8, (7R,8S)-dihydrodehydrodiconiferyl alcohol 4-O-α-rhamnopyranoside], the “cytotoxic activity” value with MOLM13 cells is “Only compounds 11 and 15, which are γ- and δ-lactones, respectively, exhibited significant cytotoxic activity”.
Consider `CC1OC(OC2C(OC3C(Oc4c(-c5ccc(O)c(O)c5)oc5cc(O)cc(O)c5c4=O)OC(CO)C(O)C3O)OC(CO)C(O)C2O)C(O)C(O)C1O` (stereo not drawn) [Compound 3, quercetin 3-O-(2’’-O-(2’’’-α-rhamnopyranosyl)-β-glucopyranosyl)-β-glucopyranoside], for which the “cytotoxic activity” value with MOLM13 cells is “Only compounds 11 and 15, which are γ- and δ-lactones, respectively, exhibited significant cytotoxic activity”.
By EC50 is commonly meant the concentration needed to bring the measured effect to its halfway point. As to `CC(O)C(=O)CCC(=O)OC1C=CC(=O)OC1C` (centres unmarked) [Compound 15, 4-O-(5-hydroxy-4-oxohexanoyl) osmundalactone], the EC50 with MOLM13 cells is 111.9 ± 0.07 µM; with H9c2 cells it was 102.7 ± 0.12 µM; with NRK cells, above 200 µM. Moreover, in the series with MOLM13 cells, the “cytotoxic activity” value is listed as “significant cytotoxic activity”. In the series on NRK cells (200 μM, 72 h), the “reduced metabolic activity in the NRK cells at the highest concentration tested” value is recorded as “did not detect reduced metabolic activity”.
Take `CC1OC(OC2C(OC3C(Oc4c(-c5ccc(O)cc5)oc5cc(O)cc(O)c5c4=O)OC(CO)C(O)C3O)OC(COC(=O)C=Cc3ccc(O)c(O)c3)C(O)C2O)C(O)C(O)C1O` (stereo not drawn) [Compound 6, kaempferol 3-O-(2’’-O-(2’’’-O-α-rhamnopyranosyl-6’’’-O-(E)-caffeoyl-)-β-glucopyranosyl)-β-glucopyranoside]: the “cytotoxic activity” value in the series with MOLM13 cells is “Only compounds 11 and 15, which are γ- and δ-lactones, respectively, exhibited significant cytotoxic activity”.
On to `CC(O)C1C=CC(=O)O1` (centres unmarked) [Compound 11, 5-hydroxy-2-hexen-4-olide], for which the EC50 with MOLM13 cells worked out at 46.2 ± 0.07 µM; with H9c2 cells, 48.7 ± 0.18 µM; with NRK cells, 49.6 ± 0.11 µM. Also, the “cytotoxic activity” value in the series on MOLM13 cells was “significant cytotoxic activity”.
Regarding `CC(O)C1OC(=O)C(C2CC(=O)OC(C)C2O)C1O` [Compound 13, (4R,5S,3’S,1’’S,4’R)-4-hydroxy-3-(3’-hydroxy-4’-(1-hydroxyethyl)-oxotetrahydrofuran-5-methyltetrahydropyranone], the “cytotoxic activity” value in the series with MOLM13 cells is “Only compounds 11 and 15, which are γ- and δ-lactones, respectively, exhibited significant cytotoxic activity”.
With `CO[C@H]1CC(=O)O[C@@H]1C(C)O` (some centres unmarked) [Compound 12, 3-methoxy-5-hydroxy-4-olide], the “cytotoxic activity” value with MOLM13 cells was “Only compounds 11 and 15, which are γ- and δ-lactones, respectively, exhibited significant cytotoxic activity”.
Turning to `COc1cc(C2OC2CO)ccc1O` (centres unmarked) [Compound 10, epoxyconiferyl alcohol], the “cytotoxic activity” value in the series on MOLM13 cells was “Only compounds 11 and 15, which are γ- and δ-lactones, respectively, exhibited significant cytotoxic activity”.
For the compound `CC1OC(OC2C(OC3C(Oc4c(-c5ccc(O)cc5)oc5cc(O)cc(O)c5c4=O)OC(CO)C(O)C3O)OC(CO)C(O)C2O)C(O)C(O)C1O` (stereo not drawn) [Compound 2, kaempferol 3-O-(2’’-O-(2’’’-α-rhamnopyranosyl)-β-glucopyranosyl)-β-glucopyranoside], the “cytotoxic activity” value in the series with MOLM13 cells was “Only compounds 11 and 15, which are γ- and δ-lactones, respectively, exhibited significant cytotoxic activity”.
